Laboratory results from patent US11369601B2, “Prophylactic or therapeutic agent for pulmonary hypertension comprising mebendazole and/or itraconazole or salt thereof” (TOHOKU UNIVERSITY, priority 2017, dated 2022).
Entries after “also recorded” stand apart in the source; their conditions may differ.

Key:
[1] = Body weight of hypoxia-induced pulmonary hypertension mice; assay type: in vivo, mice (C57/BL6); conditions: for average body weight after the test: after 3 weeks hypoxia and once daily intravenous dosing, itraconazole 20 mg/kg/day, mebendazole 25 mg/kg/day
Description: (§1) Hypoxia-induced pulmonary hypertension mice serving as a model generally used in an animal experiment for pulmonary hypertension were intravenously administered itraconazole or mebendazole. Specifically, first, 8-week-old male wild-type mice (C57/BL6 mice, n=10 per group) were housed in a transparent acrylic box with an oxygen concentration controlled to 10% using a hypoxia generator (Teijin Limited, Japan) under a 12 h light and dark cycle. The mice were stimulated by hypoxia for 3 weeks, and in this period, were intravenously injected with itraconazole (the following solution was used as itraconazole: 100 mg of itraconazole was dissolved in 6.7 ml of dimethyl sulfoxide, and the solution of itraconazole in dimethyl sulfoxide was mixed with ultrapure water (mQ or ultrapure water) to prepare a 100 ml solution) once daily at a dose of 20 mg/kg/day. As a Vihicle group, the following test was performed: the mice were stimulated by hypoxia in the same manner as described above except that the mice were intravenously injected with a 1:15 (V/V) mixed solution of dimethyl sulfoxide and ultrapure water in place of itraconazole as a diet. In addition, a mebendazole administration test for hypoxia-induced pulmonary hypertension mice was performed in the same manner as described above except that the mice were intravenously injected with mebendazole in place of itraconazole (the following solution was used as mebendazole: 100 mg of mebendazole was dissolved in 6.7 ml of dimethyl sulfoxide, and the solution of mebendazole in dimethyl sulfoxide was mixed with ultrapure water (mQ or ultrapure water) to prepare a 100 ml solution) at a dose of 25 mg/kg/day.
After the hypoxic stimulation for 3 weeks, a 1.2-Fr catheter (SciSense Inc., Ontario, Canada) was inserted in the jugular vein of the mice under isoflurane anesthesia and advanced into the right ventricle to measure a right ventricular systolic pressure. […]

[2] = tested on: Hypoxia-induced pulmonary hypertension mice; assay: Hypoxia-induced pulmonary hypertension mice, right heart catheterization; assay type: in vivo, mice (C57/BL6); conditions: hypoxia (10% oxygen) 3 weeks, intravenous once daily, itraconazole 20 mg/kg/day, mebendazole 25 mg/kg/day, vs vehicle; for right ventricular systolic pressure: FIG. 1
Description: as §1
After the hypoxic stimulation for 3 weeks, a 1.2-Fr catheter (SciSense Inc., Ontario, Canada) was inserted in the jugular vein of the mice under isoflurane anesthesia and advanced into the right ventricle to measure a right ventricular systolic pressure. The average body weights of the Vehicle group, the itraconazole administration group, and the mebendazole administration group before the test were 16.3±0.2 g, 16.8±0.3 g, and 16.8.±0.3 g, respectively. In addition, the average body weights of the Vehicle group, the itraconazole administration group, and the mebendazole administration group after the test were 18.±0.2 g, 17.2±0.2 g, and 17.5±0.2 g, respectively.

[3] = tested on: pulmonary artery smooth muscle cells; assay: Excessive proliferation of pulmonary artery smooth muscle cells (compound investigation); assay type: cell-based
Description: Under such circumstances, the inventors of the present invention have investigated thousands of kinds of compounds. […] The present invention is based on such novel findings.

[4] = Body weight of rats with Sugen/hypoxia-induced PH; assay type: in vivo, rats (Sprague-Dawley); conditions: mebendazole 25 mg per kg intravenously once daily for 14 days, vs vehicle control
Description: Rats (Sprague-Dawley, male, 6-week-old) were injected subcutaneously with a VEGF-receptor inhibitor SU5416 (Sigma-Aldrich) (20 mg per kg body weight) under isoflurane anesthesia and were then exposed to hypoxia (10% 02) for 3 weeks (hypoxia+SU5416). On day 21, the rats were randomized to be intravenously injected with mebendazole (25 mg per kg body weight) or vehicle (the rats were administered dimethyl sulfoxide in place of mebendazole solution) once daily under normoxia (21% O2) for 2 weeks. The vehicle administration group is expressed as vehicle control. […] On day 35, the rats were anesthetized with isoflurane (1.0%) to measure RVSP and RVH. Thus, the development of PH was assessed.

[5] = tested on: Sugen/hypoxia-induced hypertension rat model; assay: Sugen/hypoxia-induced pulmonary hypertension rat model, RVSP and RVH; assay type: in vivo, rats (Sprague-Dawley)
Description: In this test, a vehicle treatment group was used as a control. A Sugen/hypoxia-induced hypertension rat model was used to assess pulmonary hypertension (PH) (Non-patent Literature 2). In order to assess the development of pulmonary hypertension, right ventricular systolic pressure (RVSP) and right ventricular hypertrophy (RVH) were measured (Non-patent Literatures 2 to 4).
For right heart catheterization, a 1.4-F (for rats) pressure measurement catheter (Transonic Scisense) was inserted into the right jugular vein and advanced into the right ventricle to measure RVSP (Non-patent Literature 5).
In the Sugen/hypoxia model, rats (Sprague-Dawley, male, 6-week-old) were injected subcutaneously with a VEGF-receptor inhibitor SU5416 (Sigma-Aldrich, St Louis, Mo.) (20 mg per kg body weight) under isoflurane anesthesia and were then exposed to hypoxia (10% O2) for 3 weeks. After the indicated period of treatment below, the rats were anesthetized with isoflurane (1.5%) to perform right heart catheterization. All data were analyzed using the PowerLab data acquisition system (AD Instruments, Bella Vista, Australia) and were averaged over 50 sequential beats (Non-patent Literatures 2 to 5).
Hearts were dissected and the right ventricular free wall (RV) was removed from the left ventricle (LV) and septum. The ratio of right ventricular free wall (RV) weight to left ventricle plus septum (LV+Septum) weight [RV/(LV+S)] was measured to assess the extent of RVH (Non-patent Literature 2).
Rats (Sprague-Dawley, male, 6-week-old) were injected subcutaneously with a VEGF-receptor inhibitor SU5416 (Sigma-Aldrich) (20 mg per kg body weight) under isoflurane anesthesia and were then exposed to hypoxia (10% 02) for 3 weeks (hypoxia+SU5416). On day 21, the rats were randomized to be intravenously injected with mebendazole (25 mg per kg body weight) or vehicle (the rats were administered dimethyl sulfoxide in place of mebendazole solution) once daily under normoxia (21% O2) for 2 weeks. The vehicle administration group is expressed as vehicle control. […] Thus, the development of PH was assessed.

[6] = hypoxia+SU5416 3 weeks, then mebendazole 25 mg per kg intravenously once daily for 2 weeks under normoxia, day 35, vs vehicle control, FIG. 2

Row | SMILES | average body weight after the test [1] | average body weight before the test ([1]; before the test (baseline), mice n=10 per group) | right ventricular hypertrophy [2] | right ventricular systolic pressure [2] | excessive proliferation of pulmonary artery smooth muscle cells [3] | body weight [4] | PH in the animal model in vivo ([5]; Sugen/hypoxia rats, mebendazole 25 mg per kg intravenously once daily for 14 days) | right ventricular hypertrophy (RVH), RV/(LV+S) [5, 6] | right ventricular systolic pressure (RVSP) [5, 6]
1 | CCC(C)n1ncn(-c2ccc(N3CCN(c4ccc(OC[C@H]5CO[C@](Cn6cncn6)(c6ccc(Cl)cc6Cl)O5)cc4)CC3)cc2)c1=O (stereo partly shown) [itraconazole] | 17.2 ± 0.2 g | 16.8 ± 0.3 g | Significant reductions | Significant reductions | suppresses excessive proliferation |  |  |  | 
2 | COC(=O)Nc1nc2ccc(C(=O)c3ccccc3)cc2[nH]1 [mebendazole, methyl (5-benzoyl-1H-benzo[d]imidazol-2-yl)carbamate] | 17.5 ± 0.2 g |  | Significant reductions | Significant reductions | suppresses excessive proliferation | no significant difference; also recorded: no influence | ameliorated | reduced | reduced
